Patent US8211646B1, “Methods of treating ovarian cancer by modulating SnoN” (University of South Florida, priority 2008, dated 2012)
Peptide text beside a SMILES is read from it. * marks the point of attachment. Cbz = O=C(OCc1ccccc1)*; CH2F = FC*

Columns and labels:
Assay type in all cases: cell-based
[1] = tested on: SnoN; assay: Western analysis of SnoN protein levels
Protocol: (§1) Proteins were resolved on an 8%, 12%, or 15% SDS-PAGE gel (as appropriate) and electrophoretically transferred to polyvinyldifluoride (PVDF) membranes. After blocking with 5% (w/v) milk in TBST (Tris-Buffered Saline containing 0.1% Tween-20) for one hour at room temperature, membranes were incubated with primary antibodies (at appropriate dilution) overnight at 4° C., followed by extensive washing and incubation for 1 hour with the appropriate horseradish peroxidase-conjugated secondary antibodies (BioRad, Hercules, Calif.). Blots were washed extensively. A rabbit polyclonal EVI1 antibody was obtained (1:3000 dilution, St. Jude's Children's Hospital, Memphis, Tenn.). SnoN rabbit polyclonal (1:1000 dilution), PML, and p21 SMURF2 rabbit polyclonal (1:500 dilution), MRP1 mouse monoclonal (1:500 dilution) and GAPDH mouse monoclonal (1:250 dilution) antibodies were obtained from Santa Cruz Biotechnology (Santa Cruz, Calif.). TGFβRII rabbit polyclonal (1:1000 dilution) antibody was obtained from Strategic Diagnostics (Newark, Del.). Smad2/3 rabbit polyclonal (1:1000 dilution), Beclin-1 rabbit polyclonal (1:1000 dilution), AKT rabbit polyclonal (1:1000 dilution), TAK1 rabbit polyclonal (1:1000 dilution), PARP rabbit polyclonal (1:1000 dilution), Beclin-1 rabbit polyclonal (1:1000 dilution), caspase-3 rabbit polyclonal (1:1000) which detects the pro-caspase form, and ATG5 rabbit polyclonal (1:1000 dilution), LC3-II rabbit polyclonal (1:1000 dilution) antibodies were obtained from Cell Signaling Technology (Danvers, Mass.). The HSP27 mouse monoclonal (1:1000 dilution) antibody was obtained from Stressgen (Ann Arbor, Mich.). Blots were developed using chemiluminescence substrates (Amersham Piscataway, N.J. or BioRad, Hercules, Calif.). Monoclonal PAI-1 antibody was obtained from BD Pharmingen. PSMAD2, total SMAD2/3, p-ERK, p-AKT, and total AKT antibodies were obtained from Cell Signaling Technology. A monoclonal antibody against Arkadia was obtained from Abnova (Taiwan).
(§2) Densitometric analysis was performed using the HP Scanjet 5590 and the Image J program (Image Processing and Analysis in Java, NIH Image Software). Bands were selected and the intensity values were normalized to those for GAPDH. The values are presented as fold-changes relative to control siRNA treated cells.
The clinical inhibitors As2O3, geldanamycin (17-AAG) (dissolved in dimethylsulfoxide [DMSO]), and MG132 (dissolved in DMSO) were obtained from Sigma-Aldrich (St. Louis, Mo.), Fisher Scientific (Pittsburgh, Pa.), and Alexis Biochemicals (Farmingdale, N.Y.), respectively. N-acetyl-L-cysteine (NAC; dissolved in media) and Bortezomib (PS-341; dissolved in DMSO) were obtained from Fisher Scientific. 3-Methyladenine (3-MA; dissolved in media) was obtained from MP Biomedicals (Solon, Ohio). Tiron (4,5-Dihydroxy-1,3-benzenedisulfonic acid, dissolved in media) was obtained from Fisher Scientific. zVAD-fmk (dissolved in DMSO) and bafilomycin A (dissolved in DMSO) was obtained from Axxora LLC (San Diego, Calif.). Bovine catalase was obtained from Sigma-Aldrich. HBED and Mn TBAP was obtained from ENZO Life Sciences (Farmingdale, N.Y.). Ovarian cells were plated in 6-well plates at 250,000 cells per well and grown in complete medium. […] For control cells, DMSO (a final concentration of <0.5%) was added to compare appropriately to drugs dissolved in DMSO. After the appropriate incubation time (6 or 18 hours), cell lysates were collected, protein quantified, and SDS-PAGE/western analysis was performed. In addition, for selected studies, RNA was isolated, quantified, and used for qPCR analysis.

[2] = tested on: EVI1 forms (MDS1/EVI1, EVI1, EVI1^Del190-515); details: combination with As2O3; HEY, OVCA429
Protocol: as §1, §2
(§3) The clinical inhibitors As2O3, geldanamycin (17-AAG) (dissolved in dimethylsulfoxide [DMSO]), and MG132 (dissolved in DMSO) were obtained from Sigma-Aldrich (St. Louis, Mo.), Fisher Scientific (Pittsburgh, Pa.), and Alexis Biochemicals (Farmingdale, N.Y.), respectively. N-acetyl-L-cysteine (NAC; dissolved in media) and Bortezomib (PS-341; dissolved in DMSO) were obtained from Fisher Scientific. 3-Methyladenine (3-MA; dissolved in media) was obtained from MP Biomedicals (Solon, Ohio). Tiron (4,5-Dihydroxy-1,3-benzenedisulfonic acid, dissolved in media) was obtained from Fisher Scientific. zVAD-fmk (dissolved in DMSO) and bafilomycin A (dissolved in DMSO) was obtained from Axxora LLC (San Diego, Calif.). Bovine catalase was obtained from Sigma-Aldrich. HBED and Mn TBAP was obtained from ENZO Life Sciences (Farmingdale, N.Y.). Ovarian cells were plated in 6-well plates at 250,000 cells per well and grown in complete medium. The following day, the cells were treated with 5 μM MG132, As2O3 (between 2-50 μM), 17-AAG (between 2-50 μM), NAC (Fisher Scientific, between 25 μM to 1 mM), Tiron (between 25 μM to 1 mM), 3-MA (0.1 mM to 10 mM), or zVAD-fmk (25 μM to 100 μM). For control cells, DMSO (a final concentration of <0.5%) was added to compare appropriately to drugs dissolved in DMSO. After the appropriate incubation time (6 or 18 hours), cell lysates were collected, protein quantified, and SDS-PAGE/western analysis was performed. In addition, for selected studies, RNA was isolated, quantified, and used for qPCR analysis.

[3] = tested on: TAK1, SMAD2/3, TGFβRII, AKT, phospho-SMAD2; assay: Western analysis of other TGFβ signaling mediators
Protocol: as §1, §2, §3

[4] = tested on: SnoN RNA; assay: qPCR of SnoN RNA levels in ovarian cell lines; set-up: reduction of basal SnoN RNA levels / effect on basal SnoN RNA levels: unit of the concentration uncertain; details: 25 (unit uncertain); data not shown
Protocol: RNA was isolated using the RNeasy Mini Kit (Qiagen, Valencia, Calif.) from normal, benign, stage I-IV ovarian patient samples and quantitative PCR was performed. A one-step RT-PCR Taqman master mix from Applied Biosystems (Foster City, Calif.) and primers for genes in the 3q26.2 amplicon were obtained using Genebank sequences as well as from Assays on Demand (Hs00180524_m1 (SnoN/SkiL)), with the following primers and probe sets.
Primers/probe sequences for SnoN (Hs00180524_m1), TGFβRII (Hs00234253_m1), and LC3 (Hs00261291_m1) were obtained from Applied Biosystems (Assays by Design).
mRNA levels were determined using the One-Step-Plus Applied Biosystems Detection System or ABI PRISM 7700 Sequence Detection System using β-actin as a reference. PCR conditions were as follows: stage I: 48° C. for 30 min; stage II: 95° C. for 10 min; stage III: [40 cycles] 95° C. for 15 s followed by 60° C. for 1 min Using the correlative method, RNA-fold change in expression was calculated as Ct of gene—Ct of β-actin to generate ΔCt from which ΔCt of the normal sample was subtracted. These values were then converted to log2 values.
The clinical inhibitors As2O3, geldanamycin (17-AAG) (dissolved in dimethylsulfoxide [DMSO]), and MG132 (dissolved in DMSO) were obtained from Sigma-Aldrich (St. Louis, Mo.), Fisher Scientific (Pittsburgh, Pa.), and Alexis Biochemicals (Farmingdale, N.Y.), respectively. N-acetyl-L-cysteine (NAC; dissolved in media) and Bortezomib (PS-341; dissolved in DMSO) were obtained from Fisher Scientific. 3-Methyladenine (3-MA; dissolved in media) was obtained from MP Biomedicals (Solon, Ohio). Tiron (4,5-Dihydroxy-1,3-benzenedisulfonic acid, dissolved in media) was obtained from Fisher Scientific. zVAD-fmk (dissolved in DMSO) and bafilomycin A (dissolved in DMSO) was obtained from Axxora LLC (San Diego, Calif.). […] After the appropriate incubation time (6 or 18 hours), cell lysates were collected, protein quantified, and SDS-PAGE/western analysis was performed. In addition, for selected studies, RNA was isolated, quantified, and used for qPCR analysis.

[5] = tested on: cleaved PARP; assay: Western analysis of PARP cleavage (early apoptosis marker); details: HEY
Protocol: as §1, §2, §3

[6] = tested on: LC3-I/LC3-II, autophagosomes; assay: Autophagy: LC3 western, EGFP-LC3 fluorescence, TEM of autophagosomes; details: HEY, 18 hours
Protocol: as §1
HEY cells were seeded onto glass coverslips and allowed to adhere following overnight incubation. The cells were then transiently transfected with EGFP-LC3 (Addgene, Cambridge, Mass.) and allowed to recover for 24 hours. The cells were treated at the appropriate concentrations of As2O3 in the absence or presence of 3-MA (5 and 10 mM), for 18 hours. The cells were then fixed in 4% paraformaldehyde in PBS for 30 minutes at room temperature, washed twice in PBS, and blocked for 1 hour at room temperature in PBS containing 5% goat serum and 0.1% Triton X-100. The cells were counterstained with Hoescht nuclear stain, washed 3 times for 5 minutes in PBS, anti-Fade containing DAPI nuclear stain was then applied, and coverslips mounted onto glass slides and viewed under a Zeiss inverted fluorescence microscope (Moffitt Cancer Center Microscopy Core).
Autophagy induction was analyzed using electron microscopy. […] Cells were then fixed in 2.5% glutaraldehyde in 0.1M phosphate buffer overnight at 4° C. Following rinsing in buffer, cells were scraped from the culture flasks, washed, and then post-fixed in 1% osmium tetroxide in buffer. After dehydration in a graded series of acetone, the cells were embedded in Embed 812 epoxy resin. Thin sections (70 nm) were cut on an Ultramicrotome. The sections on the grids were stained with uranyl acetate and lead citrate. The sections were examined on a Transmission Electron Microscope (Morgagni 268D).

[7] = tested on: HSP27; assay: Western analysis of HSP27; details: HEY, 18 hours
Protocol: as §1, with “The HSP27 mouse monoclonal (1:1000 dilution) antibody was obtained from Stressgen (Ann Arbor, Mich.). Blots were developed using chemiluminescence substrates (Amersham Piscataway, N.J. or BioRad, Hercules, Calif.). Monoclonal PAI-1 antibody was obtained from BD Pharmingen. PSMAD2, total SMAD2/3, p-ERK, p-AKT, and total AKT antibodies were obtained from Cell Signaling Technology. A monoclonal antibody against Arkadia was obtained from Abnova (Taiwan).” left out
The clinical inhibitors As2O3, geldanamycin (17-AAG) (dissolved in dimethylsulfoxide [DMSO]), and MG132 (dissolved in DMSO) were obtained from Sigma-Aldrich (St. Louis, Mo.), Fisher Scientific (Pittsburgh, Pa.), and Alexis Biochemicals (Farmingdale, N.Y.), respectively. […] After the appropriate incubation time (6 or 18 hours), cell lysates were collected, protein quantified, and SDS-PAGE/western analysis was performed. In addition, for selected studies, RNA was isolated, quantified, and used for qPCR analysis.

In the case of CC(C)C[C@H](NC(=O)[C@H](Cc1ccccc1)NC(=O)c1cnccn1)B(O)O [PS-341, Bortezomib], the “SnoN protein in drug-treated cells with added proteosome inhibitor” value ([1]; combination with As2O3) is reported as “further increased”, the “EVI1 protein in As2O3-treated cells with added proteosome inhibitor” value [2] is reported as “recovered” and the “TGFβRII protein in drug-treated cells with added proteosome inhibitor” value ([3]; combination with As2O3 (MG132: 6 hour drug treatment)) is reported as “did not appear to be recovered”.
In the case of N#CC(=C(/N)Sc1ccccc1N)/C(C#N)=C(\N)Sc1ccccc1N [U0126], the “effect on basal SnoN RNA levels” value [4] is reported as “not significant”.
In the case of COC(=O)C[C@H](NC(=O)[C@H](C)NC(=O)[C@@H](NC(=O)OCc1ccccc1)C(C)C)C(=O)CF [zVAD-fmk] (Cbz-Val-Ala-Asp(OMe)-CH2F), the “SnoN levels in As2O3-treated cells with added inhibitor” value ([1]; HEY, 18 hours) is reported as “remained unchanged”, the “PARP cleavage in As2O3-treated cells with added inhibitor” value ([5]; 18 hours) is reported as “dramatically reduced” and the “LC3 levels (LC3-II/LC3-I) in As2O3-treated cells with added inhibitor” value [6] is reported as “remained unchanged”. For the same compound, the “HSP27 levels in As2O3-treated cells with added inhibitor” value [7] was “slightly decreased”.
“EVI1 siRNA: Dharmacon custom siRNA against EVI1 Exon VII, SEQ ID 6 (ACUACGUCUUCCUUAAAUAUU; listed as RNA, chemistry not given here)” was tested, and the “reduction of SnoN levels” value ([1]; absence and presence of As2O3 (6 and 18 h, 50 μM), HEY) was over 50% and the “effect on As2O3-induced PARP cleavage” value ([5]; As2O3-treated) was “did not dramatically alter”.
With TGF-β the “SnoN protein levels in ovarian cancer cells” value ([1]; SKOV3, OVCA429, OVCAR8, HEY, between 1 and 3 h post stimulation) was “dramatic increase”, the “SnoN protein levels in immortalized normal ovarian epithelial cells” value ([1]; T29 and T80, between 15 min and 1 h post-TGF-β stimulation (50 pM)) was “dramatic decrease” and the phospho-SMAD2 levels ([3]; 1 h post stimulation, T29, T80, SKOV3, HEY, OVCA429, OVCAR8) was “markedly elevated”.
